Like-named read-outs stand apart in the source and are kept apart here.
Assays:
[1] = test system: histone H3 hyperacetylation in HeLa cervical carcinoma cells; experiment: Cellular histone H3 hyperacetylation assay; type: cell-based; conditions: Homo sapiens, 24 h treatment
Text: To assess the cellular efficacy of a histone deacetylase inhibitor in vitro, an assay is set up in black clear-bottom 96-well plates and optimized for use on the Cellomics “ArrayScan II” platform for a quantitative calculation of histone acetylation. The protocol uses a polyclonal rabbit antibody, specifically binding to acetylated lysine 1-20 (including K 9 and K14) of human histone H3 on fixed cells with an Alexa Fluor 488 labeled goat anti rabbit-IgG used for counterstaining 5×10^3 HeLa cervical carcinoma cells/well (ATCC CCL-2) in 200 μl Dulbecco's modified Eagle's medium (DMEM) containing 10% fetal calf serum are seeded at day 1 in Packard view plates and incubated for 24 h under standard cell culture conditions. On day 2, 1 μl test compound (200× final concentration) is added and incubation continued for further 24 h. On day 3, the culture medium is discarded and attached cells fixed for 15 min at room temperature by addition of 100 μl fixation buffer (3.7% v:v formaldehyde in phosphate buffered saline/PBS). After discarding the fixation buffer and one wash with blocking solution (1% BSA, 0.3% Tween 20 in PBS), cells are permeabilized at room temperature by addition of 100 μl /well permeabilization buffer (30.8 mM NaCl, 0.54 mM Na2HPO4, 0.31 mM KH2PO4, 0.1% v:v Triton X-100) for 15 min at room temperature. After discarding the permeabilization buffer and washing twice with 100 μl/well blocking solution at room temperature, the 1st antibody (anti-K1-20 histone H3 antibody, Calbiochem No. 382158) in blocking solution (50 μl/well) is added. After incubation for 1 h at room temperature, the wells are washed twice at room temperature with 100 μl/well blocking solution before addition of the 2nd antibody (goat-anti-rabbit Alexa Fluor 488; MoBiTec No. A -11008) in blocking solution (50 μl well). After further incubation for 1 h at room temperature, wells are washed twice with 100 μl/well blocking solution at room temperature. Finally, 100 μl/well PBS are added and image analysis performed on the Cellomics “ArrayScan II” platform. For EC50 determination, the percentage of positive cells showing nuclear fluorescence is determined and EC50 calculation done from concentration-effect curves by means of non-linear regression. For calibration, a positive (reference HDAC inhibitors like SAHA or NVP LBH-589) and a negative control were included.

A549 NSCLC cells = experiment: Cellular cytotoxicity assay (Alamar Blue), A549; type: cell-based; conditions: Homo sapiens, 72 h, upper end given as ≧100, read-out: IC50 (μM), cytotoxicity towards A549 NSCLC cells
Summary of the method: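 Resazurin-to-resorufin fluorescence (ex 544, em 590 nm, after 4 h) gave viability as % of untreated cells following 72 h compound exposure at 37 °C. Compounds were added in semi-logarithmic dilutions 24 h post-seeding, quadruplicate wells; IC50 fitted by non-linear regression of concentration-effect curves.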

[2] = read-out: EC50, induction of histone H3 hyperacetylation
[3] = read-out: −lg EC50, induction of histone H3 hyperacetylation

| EC50 [1, 2] [µM] | EC50 [1, 3] [µM] | SMILES | IC50 (A549 NSCLC cells) [µM] |
| --- | --- | --- | --- |
| 0.15 to 15 | 0.251 to 15.8 | Nc1ccccc1NC(=O)c1nc2c(s1)CN(C(=O)NCc1ccccc1)CC2 [Example 4, N^2-(2-aminophenyl)-N5-benzyl-6,7-dihydro[1,3]thiazolo[5,4-c]pyridine-2,5(4H)-dicarboxamide] | ≥ 0.2 |
| 0.15 to 15 | 0.251 to 15.8 | Nc1ccccc1NC(=O)c1nc2c(s1)CN(c1ccc([N+](=O)[O-])cn1)CC2 [Example 194, N-(2-aminophenyl)-5-(5-nitropyridin-2-yl)-4,5,6,7-tetrahydro[1,3]thiazolo[5,4-c]pyridine-2-carboxamide] | ≥ 0.2 |
| 0.15 to 15 | 0.251 to 15.8 | Cc1ccc(OCC(=O)N2CCc3nc(C(=O)Nc4ccccc4N)sc3C2)cc1 [Example 173, N-(2-aminophenyl)-5-[(4-methylphenoxy)acetyl]-4,5,6,7-tetrahydro[1,3]thiazolo[5,4-c]pyridine-2-carboxamide] | ≥ 0.2 |
| 0.15 to 15 | 0.251 to 15.8 | COc1ccc(NC(=NC#N)N2CCc3nc(C(=O)Nc4ccccc4N)sc3C2)cc1 [Example 117, N-(2-aminophenyl)-5-{(cyanoimino)[(4-methoxyphenyl)amino]methyl}-4,5,6,7-tetrahydro[1,3]thiazolo[5,4-c]pyridine-2-carboxamide] | ≥ 0.2 |
| 0.15 to 15 | 0.251 to 15.8 | COc1ccc(OC(=O)N2CCc3nc(C(=O)Nc4ccccc4N)sc3C2)cc1 [Example 183, 4-methoxyphenyl 2-[(2-aminophenyl)carbamoyl]-6,7-dihydro[1,3]thiazolo[5,4-c]pyridine-5(4H)-carboxylate] | ≥ 0.2 |
| 0.15 to 15 | 0.251 to 15.8 | Nc1ccccc1NC(=O)c1nc2c(s1)CN(C(=O)Nc1ccc3c(c1)OCO3)CC2 [Example 7, N^2-(2-aminophenyl)-N5-1,3-benzodioxol-5-yl-6,7-dihydro[1,3]thiazolo[5,4-c]pyridine-2,5(4H)-dicarboxamide] | ≥ 0.2 |
| 0.15 to 15 | 0.251 to 15.8 | CN(C)c1ccc(NC(=O)N2CCc3nc(C(=O)Nc4ccccc4N)sc3C2)cn1 [Example 36, N^2-(2-aminophenyl)-N^5-[6-(dimethylamino)pyridin-3-yl]-6,7-dihydro[1,3]thiazolo[5,4-c]pyridine-2,5(4H)-dicarboxamide] | ≥ 0.2 |
| 0.15 to 15 | 0.251 to 15.8 | Nc1ccccc1NC(=O)c1nc2c(s1)CN(C(=O)Nc1ccncc1)CC2 [Example 15, N^2-(2-aminophenyl)-N^5-pyridin-4-yl-6,7-dihydro[1,3]thiazolo[5,4-c]pyridine-2,5(4H)-dicarboxamide] | ≥ 0.2 |
| 0.15 to 15 | 0.251 to 15.8 | N#CN=C(NCc1ccccc1)N1CCc2nc(C(=O)Nc3ccccc3N)sc2C1 [Example 122, N-(2-aminophenyl)-5-[(benzylamino)(cyanoimino)methyl]-4,5,6,7-tetrahydro[1,3]thiazolo[5,4-c]pyridine-2-carboxamide] | ≥ 0.2 |
| 0.15 to 15 | 0.251 to 15.8 | COC(=O)N1CCc2nc(C(=O)Nc3ccccc3N)sc2C1 [Example 180, Methyl 2-[(2-aminophenyl)carbamoyl]-6,7-dihydro[1,3]thiazolo[5,4-c]pyridine-5(4H)-carboxylate] | ≥ 0.2 |
| 0.15 to 15 | 0.251 to 15.8 | Nc1ccccc1NC(=O)c1nc2c(s1)CN(C(=O)C=Cc1ccc3c(c1)OCO3)CC2 [Example 190, N-(2-aminophenyl)-5-[3-(1,3-benzodioxol-5-yl)prop-2-enoyl]-4,5,6,7-tetrahydro[1,3]thiazolo[5,4-c]pyridine-2-carboxamide] | ≥ 0.2 |
| 0.15 to 15 | 0.251 to 15.8 | Nc1ccccc1NC(=O)c1nc2c(s1)CN(C(=O)C=Cc1ccc(O)c(O)c1)CC2 [Example 191, N-(2-aminophenyl)-5-[3-(3,4-dihydroxyphenyl)prop-2-enoyl]-4,5,6,7-tetrahydro[1,3]thiazolo[5,4-c]pyridine-2-carboxamide] | ≥ 0.2 |
| 0.15 to 15 | 0.251 to 15.8 | Nc1ccccc1NC(=O)c1nc2c(s1)CN(c1nccc(-c3cccnc3)n1)CC2 [Example 193, N-(2-aminophenyl)-5-(4-pyridin-3-ylpyrimidin-2-yl)-4,5,6,7-tetrahydro[1,3]thiazolo[5,4-c]pyridine-2-carboxamide] | ≥ 0.2 |
| 0.15 to 15 | 0.251 to 15.8 | Cc1ccc(S(=O)(=O)Nc2cnc(N3CCc4nc(C(=O)Nc5ccccc5N)sc4C3)nc2)cc1 [Example 196, N-(2-aminophenyl)-5-(5-{[(4-methylphenyl)sulfonyl]amino}pyrimidin-2-yl)-4,5,6,7-tetrahydro[1,3]thiazolo[5,4-c]pyridine-2-carboxamide] | ≥ 0.2 |
| 0.15 to 15 | 0.251 to 15.8 | Nc1ccccc1NC(=O)c1nc2c(s1)CN(c1ncccn1)CC2 [Example 192, N-(2-aminophenyl)-5-pyrimidin-2-yl-4,5,6,7-tetrahydro[1,3]thiazolo[5,4-c]pyridine-2-carboxamide] | ≥ 0.2 |
| 0.15 to 15 | 0.251 to 15.8 | COc1ccc(NC(=NC#N)N2CCc3nc(C(=O)Nc4ccccc4N)sc3C2)cc1OC [Example 118, N-(2-aminophenyl)-5-{(cyanoimino)[(3,4-dimethoxyphenyl)amino]methyl}-4,5,6,7-tetrahydro[1,3]thiazolo[5,4-c]pyridine-2-carboxamide] | ≥ 0.2 |
| 0.15 to 15 | 0.251 to 15.8 | Cc1ccc(NC(=O)N2CCc3nc(C(=O)Nc4ccccc4N)sc3C2)cc1 [Example 13, N^2-(2-aminophenyl)-N^5-(4-methylphenyl)-6,7-dihydro[1,3]thiazolo[5,4-c]-pyridine-2,5(4H)-dicarboxamide] | ≥ 0.2 |
| 0.15 to 15 | 0.251 to 15.8 | Cc1ccc(S(=O)(=O)Nc2ccc(N3CCc4nc(C(=O)Nc5ccccc5N)sc4C3)nc2)cc1 [Example 197, N-(2-aminophenyl)-5-(5-{[(4-methylphenyl)sulfonyl]amino}pyridin-2-yl)-4,5,6,7-tetrahydro[1,3]thiazolo[5,4-c]pyridine-2-carboxamide] | ≥ 0.2 |
| 0.15 to 15 | 0.251 to 15.8 | Nc1ccccc1NC(=O)c1nc2c(s1)CN(S(=O)(=O)c1ccc(-c3ccccc3)cc1)CC2 [Example 152, N-(2-aminophenyl)-5-(biphenyl-4-ylsulfonyl)-4,5,6,7-tetrahydro[1,3]thiazolo[5,4-c]pyridine-2-carboxamide] | ≥ 0.2 |
| 0.15 to 15 | 0.251 to 15.8 | CN(C)c1cccc(NC(=O)N2CCc3nc(C(=O)Nc4ccccc4N)sc3C2)c1 [Example 18, N^2-(2-aminophenyl)-N^5-[3-(dimethylantino)phenyl]-6,7-dihydro[1,3]thiazolo[5,4-c]pyridine-2,5(4H)-dicarboxamide] | ≥ 0.2 |
| 0.15 to 15 | 0.251 to 15.8 | Cc1ccc(C(=O)N2CCc3nc(C(=O)Nc4ccccc4N)sc3C2)cn1 [Example 96, N-(2-aminophenyl)-5-[(6-methylpyridin-3-yl)carbonyl]-4,5,6,7-tetrahydro-[1,3]thiazolo[5,4-c]pyridine-2-carboxamide] | ≥ 0.2 |

| SMILES | EC50 [1, 2] [µM] | EC50 [1, 3] [µM] | IC50 (A549 NSCLC cells) [µM] |
| --- | --- | --- | --- |
| Nc1ccccc1NC(=O)c1nc2c(s1)CN(C(=O)Nc1cccnc1)CC2 [Example 39, N^2-(2-aminophenyl)-N^5-pyridin-3-yl-6,7-dihydro[1,3]thiazolo[5,4-c]pyridine-2,5(4H)-dicarboxamide] | 0.15 to 15 | 0.251 to 15.8 | ≥ 0.2 |

Source: patent US8440830B2, “Tetrahydro-fused pyridines as histone deacetylase inhibitors” (4SC AG, priority 2007, dated 2013)
